Experimental data: article PMC6761512, “Trypanosoma cruzi Phosphomannomutase and Guanosine Diphosphate-Mannose Pyrophosphorylase Ligandability Assessment” (Antimicrobial Agents and Chemotherapy, 2019)

Assays:
[1] = tested on: T. cruzi GDP-MP enzyme; experiment: Km determination with the GDP-MP assay; format: biochemical
Protocol: (§1) All enzyme and substrate solution dilutions were prepared in assay buffer comprising 25 mM Tris-HCl (pH 7.5), 150 mM NaCl, 4 mM MgCl2, 0.01% (vol/vol) Tween 20, and 1 mM dithiothreitol in ultrapure water. Biochemical assays were performed in a 50-μl final assay volume using clear 384-well assay microplates (Greiner, catalog no. 781101) at room temperature. Unless stated otherwise, all reagent concentrations are written as final biochemical assay concentrations, and DMSO or compounds were added to assay plates using Echo acoustic dispensers (Labcyte). Reagent addition for high-throughput screening assays was performed using an Xrd-384 liquid dispenser (FluidX, UK) and a BioFill Solo/Xrd-384 16 channel resin nozzle (2.00 to 200 μl) tubing cartridge (FluidX, catalog no. 34-1005-S). Biochemical reactions were terminated by addition of 50 μl of BIOMOL Green (Enzo Life Sciences, catalog no. BML-AK111-1000) reagent, after which absorbance was measured following a 30-min incubation at room temperature. Absorbance measurements were performed at 650 nm using a PHERAStar microplate reader (BMG Labtech, Germany), and the data are represented as relative absorbance units (RAU). Linear and nonlinear regression was performed using the SigmaPlot 12.5 software, unless stated otherwise.
To calculate the Michaelis constant (Km) for the M-1-P substrate, 20-min time course reactions using a fixed concentration of GDP-MP enzyme (3.13 nM), a saturating concentration of GTP substrate (600 μM) mixed with inorganic pyrophosphatase (1 U/ml; Merck, catalogue no. I5907-1MG), and various concentrations of M-1-P substrate (150, 75, 37.5, 18.8, 9.38, 4.69, and 2.34 μM) were performed. The Km for the GTP substrate was acquired in a similar manner using a saturating concentration of M-1-P (150 μM) and various concentrations of GTP substrate (300, 150, 75, 37.5, 18.8, 9.38, and 4.69 μM). In both cases, background control samples were also included that lacked the presence of GDP-MP enzyme. At the end of the time courses, the biochemical reactions were terminated, and absorbance measurements were taken. […]

[2] = biological target: T1, T. cruzi PMM and GDP-MP enzymes (Trypanosoma cruzi, UniProt Q4CMK4); experiment: standard configuration PMM-GDP-MP biochemical assay; conditions: for pIC50: library stock material, mean n=2; for pIC50 ± SD: repurchased material, n=3
Protocol: as §1
Single-point diversity screening was performed using the standard configuration PMM-GDP-MP biochemical assay and microplates containing compounds in columns 1 to 22 from two diverse small-molecule compound sets covering traditional small-molecule chemical space (DDD, 9,257 compounds; molecular weights between 185.2 and 492.2) and more three-dimensional chemical space (GHCDL, 8,860 compounds; molecular weights between 190.24 and 449.3) at a final concentration of 10 μM (final DMSO concentration = 0.1% [vol/vol]) or a small polar set (16,845 primarily fragment-sized compounds with increased polarity; molecular weights between 88.1 and 476.0) at a final concentration of 300 μM (final DMSO concentration = 0.3% [vol/vol]). Columns 23 and 24 both contained DMSO (either 0.1 or 0.3% [vol/vol] at final assay concentration) and were utilized as “maximum effect” and “minimum effect” control populations, respectively. For screening purposes, 25 μl of a solution containing PMM and GDP-MP enzymes (6.25 and 3.13 nM, respectively) was added to columns 1 to 23, and 25 μl of buffer only was added to column 24. This was followed by the addition of 25 μl of a mixture containing inorganic pyrophosphatase (1 U/ml) and substrates/cofactors (150 μM GTP, 45 μM M-6-P, and 6 μM G-1,6,-BP). The assay plates were incubated at room temperature for 90 min. At the end of the incubation period, the biochemical reactions were terminated, and absorbance measurements were taken. Robust Z′ values were calculated for each assay microplate using the following equation: Robust Z’=1 –((3 ×(1.483 ×(RAU MAD Max)))+(3 ×(1.483 ×(RAU MAD Min))))/(median RAU Max− median RAU Min) where MAD is the median absolute deviation, Max are the maximum effect control samples, and Min are the minimum effect control samples.
RAU values were normalized to percent inhibition values relative to the maximum and minimum effect control populations, and compounds displaying percent inhibition values of ≥30% were selected as hits. Data were processed using IDBS ActivityBase 8.1.2.12 and Dotmatics Limited Vortex v2017.08.69598-59-s software.
Concentration-response assessment of hits using the PMM-GDP-MP assays was performed by adding 25 μl of a solution of PMM and GDP-MP enzymes (6.25 and 3.13 nM, respectively) to columns 1 to 11 and 13 to 23 of microplates containing various concentrations of compounds (10 final assay concentrations ranging from […] at 1 in 3 dilution increments in the presence of 1% [vol/vol] DMSO). Buffer only (25 μl) was added to columns 12 and 24. […]

[3] = biological target: T2, T. cruzi GDP-MP (Trypanosoma cruzi, UniProt Q4CMK4); experiment: standard configuration GDP-MP biochemical assay
Protocol: as §1
Concentration-response assessment of hits using the PMM-GDP-MP assays was performed by adding 25 μl of a solution of PMM and GDP-MP enzymes (6.25 and 3.13 nM, respectively) to columns 1 to 11 and 13 to 23 of microplates containing various concentrations of compounds (10 final assay concentrations ranging from […] at 1 in 3 dilution increments in the presence of 1% [vol/vol] DMSO). Buffer only (25 μl) was added to columns 12 and 24. Columns 11 and 23 were utilized as “maximum effect” control populations (1% [vol/vol] DMSO with enzyme), and columns 12 and 24 were “minimum effect” control populations (1% [vol/vol] DMSO in the absence of enzyme). This was followed by the addition of 25 μl of a mixture containing inorganic pyrophosphatase (1 U/ml) and substrates/cofactors (150 μM GTP, 45 μM M-6-P, and 6 μM G-1,6-BP for the standard configuration assay and 150 μM GTP, 225 μM M-6-P, and 30 μM G-1,6-BP for the high-substrate configuration assay) to the entire assay plate. The standard configuration assay plates were incubated at room temperature for 90 min, and the high-substrate configuration assay plates were incubated for 80 min. Standard and high-substrate configuration GDP-MP assay compound concentration-response assessments were performed as described above by incubating GDP-MP enzyme (3.13 or 0.78 nM) in the presence of GTP (30 or 300 μM), M-1-P (15 or 150 μM), and inorganic pyrophosphatase (1 U/ml) for 50 min at room temperature. Pyrophosphatase counterscreen concentration-response assessments were performed by preincubating compounds with inorganic pyrophosphatase (1 U/ml) for 90 min at room temperature, followed by the addition of inorganic pyrophosphate (10 μM) and a secondary 5-min incubation at room temperature. At the end of the incubation periods, the biochemical reactions were terminated and absorbance measurements were taken. RAU values were normalized to % inhibition values relative to the maximum and minimum effect control populations. pIC50 values, defined as –log[IC50(M)], were calculated by fitting concentration-response data for each independent replicate separately to a four-parameter logistic model, as shown below, using either the IDBS ActivityBase 8.1.2.12 or SigmaPlot 12.5 software. Where appropriate, the top curve plateau parameter was constrained to a value of 100.
The four-parameter logistic model was as follows, where Min is the minimum asymptote and Max is the maximum asymptote: y=Min+Max – Min/1+(10^−logIC50/x)^Hill slope

[4] = biological target: T1, T. cruzi PMM and GDP-MP enzymes; experiment: high-substrate configuration PMM-GDP-MP biochemical assay; conditions: repurchased material, n=3
Protocol: as §1, with “otherwise. […]” for “otherwise.”

[5] = biological target: T2, T. cruzi GDP-MP; experiment: high-substrate configuration GDP-MP biochemical assay; conditions: for IC50: GDP-MP, high-substrate configuration, repurchased material, n=3; for mode of inhibition of GDP-MP: from comparison of standard and high-substrate (10-fold) configuration GDP-MP assays
Protocol: as §1
Concentration-response assessment of hits using the PMM-GDP-MP assays was performed by adding 25 μl of a solution of PMM and GDP-MP enzymes (6.25 and 3.13 nM, respectively) to columns 1 to 11 and 13 to 23 of microplates containing various concentrations of compounds (10 final assay concentrations ranging from 990 to 1.92 μM at 1 in 3 dilution increments in the presence of 1% [vol/vol] DMSO). Buffer only (25 μl) was added to columns 12 and 24. Columns 11 and 23 were utilized as “maximum effect” control populations (1% [vol/vol] DMSO with enzyme), and columns 12 and 24 were “minimum effect” control populations (1% [vol/vol] DMSO in the absence of enzyme). This was followed by the addition of 25 μl of a mixture containing inorganic pyrophosphatase (1 U/ml) and substrates/cofactors (150 μM GTP, 45 μM M-6-P, and 6 μM G-1,6-BP for the standard configuration assay and 150 μM GTP, 225 μM M-6-P, and 30 μM G-1,6-BP for the high-substrate configuration assay) to the entire assay plate. […] At the end of the incubation periods, the biochemical reactions were terminated and absorbance measurements were taken. RAU values were normalized to % inhibition values relative to the maximum and minimum effect control populations. pIC50 values, defined as –log[IC50(M)], were calculated by fitting concentration-response data for each independent replicate separately to a four-parameter logistic model, as shown below, using either the IDBS ActivityBase 8.1.2.12 or SigmaPlot 12.5 software. […]

[6] = library stock material, n=1, read-out: pIC50 (converted)
[7] = repurchased material, n=3, read-out: pIC50 ± SD (converted)

T2 sequence (Q4CMK4 entry or part of it): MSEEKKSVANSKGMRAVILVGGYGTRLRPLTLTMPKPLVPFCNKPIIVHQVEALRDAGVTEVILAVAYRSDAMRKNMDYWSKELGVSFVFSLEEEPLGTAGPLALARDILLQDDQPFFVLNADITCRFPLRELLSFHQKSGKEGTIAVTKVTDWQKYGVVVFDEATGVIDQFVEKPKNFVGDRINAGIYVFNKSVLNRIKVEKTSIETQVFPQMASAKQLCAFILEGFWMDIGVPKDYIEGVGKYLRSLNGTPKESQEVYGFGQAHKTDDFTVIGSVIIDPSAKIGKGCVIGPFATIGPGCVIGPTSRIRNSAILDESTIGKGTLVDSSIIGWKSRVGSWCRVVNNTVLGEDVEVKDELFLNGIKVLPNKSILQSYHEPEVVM
T1 sequence (Q4CMK4 entry or part of it): as above
T1 sequence (Q4E4A3 entry or part of it, further chain): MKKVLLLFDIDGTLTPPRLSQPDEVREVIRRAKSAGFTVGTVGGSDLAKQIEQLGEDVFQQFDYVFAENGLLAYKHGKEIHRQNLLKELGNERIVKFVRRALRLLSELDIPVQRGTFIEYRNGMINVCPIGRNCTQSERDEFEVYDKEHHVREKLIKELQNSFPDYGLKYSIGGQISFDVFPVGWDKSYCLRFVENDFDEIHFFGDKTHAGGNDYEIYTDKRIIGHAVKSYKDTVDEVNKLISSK

pIC50 [2]	IC50 [3, 6] [µM]	pIC50 ± SD [2]	pIC50 ± SD [4]	IC50 [3, 7] [µM]	IC50 [5] [µM]	mode of inhibition of GDP-MP [5]	Structure (SMILES)	GTP Km of T. cruzi GDP-MP, fold higher than reported for L. donovani ([1]; vs L. donovani GDP-MP) [fold]	GTP Km of T. cruzi GDP-MP, fold higher than reported for L. major ([1]; vs L. major GDP-MP) [fold]	GTP Km of T. cruzi GDP-MP, fold higher than reported for L. mexicana ([1]; vs L. mexicana GDP-MP) [fold]
3.6 (2)	> 1000	3.1 ± 0.2 (3)	3.2 ± 0.2 (3)	> 1000	794	uncompetitive inhibition	c1ccn2c(CNCCCN3CCC3)cnc2c1 [compound 2]			
4.0 (2)	158						N[C@H]1CCN(CCCOc2ccc(C(=O)O)cc2)C1 [compound 4]			

The next lines start with the compound.

Structure (SMILES)	pIC50 [2]	IC50 [3, 6] [µM]	pIC50 ± SD [2]	pIC50 ± SD [4]	IC50 [3, 7] [µM]	IC50 [5] [µM]	mode of inhibition of GDP-MP [5]	GTP Km of T. cruzi GDP-MP, fold higher than reported for L. donovani ([1]; vs L. donovani GDP-MP) [fold]	GTP Km of T. cruzi GDP-MP, fold higher than reported for L. major ([1]; vs L. major GDP-MP) [fold]	GTP Km of T. cruzi GDP-MP, fold higher than reported for L. mexicana ([1]; vs L. mexicana GDP-MP) [fold]
Nc1nc2c(ncn2[C@@H]2O[C@H](COP(=O)(O)OP(=O)(O)OP(=O)(O)O)[C@@H](O)[C@H]2O)c(=O)[nH]1 [GTP]								2.4	27	5.3
CC(C)C(C(=O)O)N1C(=O)C=CC1=O (stereo not drawn) [compound 1]	4.9 (2)	25.1								
CC(=O)OCc1cc(-c2csc(N)n2)ccc1O [compound 3]	3.5 (2)	158	3.9 ± 0.2 (3)	3.6 ± 0.1 (3)	126	316	competitive inhibition			
